Measurements: PMC8617031, “Development of a BCL-xL and BCL-2 dual degrader with improved anti-leukemic activity,” (Nature Communications, 2021)
Where “and” joins values, the source holds several entries; their conditions need not be identical. Equal entries are not always repeated. Where two headings read alike, the source gives them in different places.

Assays:
[1] = system: Hela cells; test: Viability (MTS) of Hela cells; type: cell-based, human; settings: in % (unit assumed)
Experimental: Suspension cells were treated 30 min after seeding, whereas adherent cells were allowed to adhere overnight and were then treated. Compound treatments were prepared in complete cell culture medium and 100 µl of 2× treatment-containing medium were added to each well. Complete cell culture medium without treatment was added in control wells, and wells containing medium without cells served as background. The outer wells of the 96-well plate were not used for treatment and were filled with 250 µl of PBS to reduce evaporation of medium from inner wells. Each compound and/or combination was tested at nine different concentrations with three replicates. The cell viability was measured after 72 h by tetrazolium-based MTS assay. MTS reagent (2 mg ml^–1 stock; cat. no. G1111, Promega) was freshly supplemented with phenazine methosulfate (PMS, 0.92 mg ml^–1 stock, cat. no. P9625, Sigma-Aldrich) in 20:1 ratio, and 20 µl of this mixture was added to each control and treatment well. The cells were incubated for 4 h at 37 °C and 5% CO2, and then the absorbance was recorded at 490 nm using Biotek’s Synergy Neo2 multimode plate reader (Biotek). The average absorbance value of background wells was subtracted from absorbance value of each control and treatment well, and percent cell viability ((At/A0) × 100)) was determined in each treatment well, where At is the absorbance value of the treatment well and A0 is the average absorbance value of control wells after background subtraction. The data were expressed as average percentage cell viability and fitted in non-linear regression curves using GraphPad Prism 7 (GraphPad Software, La Jolla, CA, USA).

[2] = system: Kasumi-1 cells; test: Viability (MTS) of Kasumi-1 AML cells; type: cell-based, human; settings: for viability at 0.0411523 µM / viability at 0.37037 µM / viability at 1.11111 µM / viability at 3.33333 µM / viability at 10 µM / viability at […] / IC50: Homo sapiens; for viability at 0.0411523 µM: Kasumi 1, Concentration 0.0411523 uM; for viability at 0.0411523 µM / viability at 0.37037 µM / viability at 1.11111 µM / viability at 3.33333 µM / viability at 10 µM / viability at […]: Supplementary Fig. 12b; for viability at 0.37037 µM: Kasumi 1, Concentration 0.37037 uM; for viability at 1.11111 µM: Kasumi 1, Concentration 1.11111 uM; for viability at 3.33333 µM: Kasumi 1, Concentration 3.33333 uM; for viability at 10 µM: Kasumi 1, Concentration 10 uM; for viability at […]: Kasumi 1, Concentration […]; for IC50: Kasumi 1, 72 h
[3] = target: T1, His-tagged BCL-xL (Homo sapiens, UniProt Q07817); test: AlphaScreen competitive binary binding, BCL-xL (biotin-BAD peptide)
T1 construct: purchased Sigma-Aldrich SRP0187
Experimental: The reagents were diluted in a buffer containing 250 mM HEPES pH 7.5, 1 M NaCl, 1% BSA, and 0.05% Tween-80. His-tagged BCL-xL (0.5 nM, Cat. No. SRP0187, Sigma-Aldrich) or BCL-2 (1 nM, Cat. No. SRP0186, Sigma-Aldrich) were incubated with serial diluted 753a or 753b and 2 nM biotin-tagged BAD (biotin-[…] amino-terminal, AnaSpec, for BCL-xL) or 10 nM BIM peptides (biotin-[…] N-terminal, AnaSpec, for BCL-2) to a final volume of 40 µl in a 96-well PCR plate. […] After incubation for 2 h, 5 µl 6× His-acceptor beads (Cat. No. AL128M, PerkinElmer) were added to each well at 20 µg/ml final concentration and incubated for 1 h. Then 5 µl streptavidin-donor beads were added (Cat. No. 6760002, PerkinElmer) to each well at 20 µg/ml final concentration and incubated for 45 min. At the end of the incubation period, 17 µl of each sample was transferred in adjacent wells of 384-well proxy plate (Cat. No. 6008280, PerkinElmer). The plate was scanned using the Alpha program on Biotek’s Synergy Neo2 multimode plate reader. The inhibition constant (Ki) was calculated using the non-linear regression, one site, competitive binding, Fit Ki function on GraphPad Prism 9 software, based on experimentally determined dissociation constant (Kd) for each protein–peptide pair.

[4] = Average of 3 wells, read-out: MTS viability, percent of 0 uM control, Average
[5] = single well, read-out: MTS viability, corrected absorbance 490 as percent of 0 uM control

T1 sequence (Q07817 whole entry): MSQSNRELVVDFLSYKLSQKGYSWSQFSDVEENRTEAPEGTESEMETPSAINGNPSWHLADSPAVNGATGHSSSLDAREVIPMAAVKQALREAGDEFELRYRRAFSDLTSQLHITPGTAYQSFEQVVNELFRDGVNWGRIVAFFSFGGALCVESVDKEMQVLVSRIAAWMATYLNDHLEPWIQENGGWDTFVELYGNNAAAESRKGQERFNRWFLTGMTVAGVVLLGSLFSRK

Alpha signal normalised to Maximum/Minimum (inhibition) ([3]; BCL-xL Rep-1, 0.000305176 uM, 0.000305176 µM): 28.4807
inhibition at 0.000305176 µM ([3]; BCL-xL Rep-1, 0.000305176 uM, read-out: Alpha signal normalised to Maximum/Minimum (inhibition)): 32%
Alpha signal normalised to Maximum/Minimum (inhibition) ([3]; BCL-xL Rep-1, 0.0012207 uM, 0.0012207 µM): 28.8475
inhibition at 0.0012207 µM ([3]; BCL-xL Rep-1, 0.0012207 uM, read-out: Alpha signal normalised to Maximum/Minimum (inhibition)): 27.8%
Alpha signal normalised to Maximum/Minimum (inhibition) ([3]; BCL-xL Rep-1, 0.00488281 uM, 0.00488281 µM): 50.9941
inhibition at 0.00488281 µM ([3]; BCL-xL Rep-1, 0.00488281 uM, read-out: Alpha signal normalised to Maximum/Minimum (inhibition)): 46.4%
Alpha signal normalised to Maximum/Minimum (inhibition) ([3]; BCL-xL Rep-1, 0.0195312 uM, 0.0195312 µM): 73.9595
inhibition at 0.0195312 µM ([3]; BCL-xL Rep-1, 0.0195312 uM, read-out: Alpha signal normalised to Maximum/Minimum (inhibition)): 70.8%
Alpha signal normalised to Maximum/Minimum (inhibition) ([3]; BCL-xL Rep-1, 0.078125 uM, 0.078125 µM): 89.8384
inhibition at 0.078125 µM ([3]; BCL-xL Rep-1, 0.078125 uM, read-out: Alpha signal normalised to Maximum/Minimum (inhibition)): 90.1%
Alpha signal normalised to Maximum/Minimum (inhibition) ([3]; BCL-xL Rep-1, 0.3125 uM, 0.3125 µM): 98.7717
inhibition at 0.3125 µM ([3]; BCL-xL Rep-1, 0.3125 uM, read-out: Alpha signal normalised to Maximum/Minimum (inhibition)): 97.2%
Alpha signal normalised to Maximum/Minimum (inhibition) ([3]; BCL-xL Rep-1, 1.25 uM, 1.25 µM): 99.2115
inhibition at 1.25 µM ([3]; BCL-xL Rep-1, 1.25 uM, read-out: Alpha signal normalised to Maximum/Minimum (inhibition)): 98.7%
Alpha signal normalised to Maximum/Minimum (inhibition) ([3]; BCL-xL Rep-1, 5 uM, 5 µM): 98.674
inhibition at 5 µM ([3]; BCL-xL Rep-1, 5 uM, read-out: Alpha signal normalised to Maximum/Minimum (inhibition)): 99.7%
Alpha signal (raw counts) ([3]; BCL-xL Rep-1, plate row B, 5 uM): 24284 and 38579
Alpha signal (raw counts) ([3]; BCL-xL Rep-1, plate row C, 1.25 uM): 38335 and 30879
Alpha signal (raw counts) ([3]; BCL-xL Rep-1, plate row D, 0.3125 uM): 59200 and 37180
Alpha signal (raw counts) ([3]; BCL-xL Rep-1, plate row E, 0.078125 uM): 160796 and 165155
Alpha signal (raw counts) ([3]; BCL-xL Rep-1, plate row F, 0.0195312 uM): 437862 and 392628
Alpha signal (raw counts) ([3]; BCL-xL Rep-1, plate row G, 0.00488281 uM): 787377 and 721620
SMILES: CC1(C)CCC(c2ccc(Cl)cc2)=C(CN2CCN(c3ccc(C(=O)NS(=O)(=O)c4ccc(N[C@H](CCN5CCOCC5)CSc5ccccc5)c(S(=O)(=O)C(F)(F)F)c4)cc3)CC2)C1 [ABT263, navitoclax]
cell viability normalised to control wells (single replicate) ([1]; MTS absorbance 490, Conc 0.00137174 uM): 109.176 and 100.419
cell viability normalised to control wells (single replicate) ([1]; MTS absorbance 490, Conc 0.00411523 uM): 94.0029 and 98.8584
cell viability normalised to control wells (single replicate) ([1]; MTS absorbance 490, Conc 0.037037 uM): 90.3613 and 97.2977
cell viability normalised to control wells (single replicate) ([1]; MTS absorbance 490, Conc 0.111111 uM): 79.4364 and 85.7659 and 104.581
cell viability normalised to control wells (single replicate) ([1]; MTS absorbance 490, Conc 0.333333 uM): 80.9971 and 79.263
cell viability normalised to control wells (single replicate) ([1]; MTS absorbance 490, Conc 1 uM): 85.9393 and 80.3035
cell viability normalised to control wells (single replicate) ([1]; MTS absorbance 490, Conc 3 uM): 78.7428 and 78.4827
Luminescence (raw plate reading) ([2]; 3.90625 nM (plate column 2), Fig. 7a): 652130 and 630259 and 658966 and 744397
Luminescence (raw plate reading) ([2]; 7.8125 nM (plate column 3), Fig. 7a): 632892 and 633903 and 634701 and 712997
Luminescence (raw plate reading) ([2]; 15.625 nM (plate column 4), Fig. 7a): 642408 and 622919 and 622003 and 704279
Luminescence (raw plate reading) ([2]; 31.25 nM (plate column 5), Fig. 7a): 622577 and 612176 and 601421 and 652847
Luminescence (raw plate reading) ([2]; 62.5 nM (plate column 6), Fig. 7a): 542999 and 553178 and 531814 and 597127
Luminescence (raw plate reading) ([2]; 125 nM (plate column 7), Fig. 7a): 381320 and 423693 and 412676 and 432347
Luminescence (raw plate reading) ([2]; 250 nM (plate column 8), Fig. 7a): 247450 and 230935 and 221189 and 256346
Luminescence (raw plate reading) ([2]; 500 nM (plate column 9), Fig. 7a): 119937 and 119731 and 112901 and 107498
Luminescence (raw plate reading) ([2]; 1000 nM (plate column 10), Fig. 7a): 56843 and 48094 and 45547 and 41795
Luminescence (raw plate reading) ([2]; 2000 nM = 2U (plate column 11), Fig. 7a): 20891 and 18712 and 20895 and 17813
Luminescence (raw plate reading) ([2]; 4000 nM = 4U (plate column 12), Fig. 7a): 11066 and 13361 and 10294 and 10997
Luminescence normalised to mean of the 0 concentration wells (= 100), viability ([2]; 3.90625 (nM), Fig. 7a): 95.2795 and 92.0841 and 96.2783 and 108.76
Luminescence normalised to mean of the 0 concentration wells (= 100), viability ([2]; 7.8125 (nM), Fig. 7a): 92.4688 and 92.6165 and 92.7331 and 104.173
Luminescence normalised to mean of the 0 concentration wells (= 100), viability ([2]; 15.625 (nM), Fig. 7a): 93.8591 and 91.0117 and 90.8778 and 102.899
Luminescence normalised to mean of the 0 concentration wells (= 100), viability ([2]; 31.25 (nM), Fig. 7a): 90.9617 and 89.442 and 87.8707 and 95.3843
Luminescence normalised to mean of the 0 concentration wells (= 100), viability ([2]; 62.5 (nM), Fig. 7a): 79.3349 and 80.8221 and 77.7007 and 87.2433
Luminescence normalised to mean of the 0 concentration wells (= 100), viability ([2]; 125 (nM), Fig. 7a): 55.7128 and 61.9037 and 60.2941 and 63.1681
Luminescence normalised to mean of the 0 concentration wells (= 100), viability ([2]; 250 (nM), Fig. 7a): 36.1537 and 33.7408 and 32.3168 and 37.4535
Luminescence normalised to mean of the 0 concentration wells (= 100), viability ([2]; 500 (nM), Fig. 7a): 17.5234 and 17.4933 and 16.4954 and 15.706
Luminescence normalised to mean of the 0 concentration wells (= 100), viability ([2]; 1000 (nM), Fig. 7a): 8.305 and 7.027 and 6.655 and 6.106
Luminescence normalised to mean of the 0 concentration wells (= 100), viability ([2]; 2000 (nM, 2U), Fig. 7a): 3.052 and 2.734 and 3.053 and 2.603
Luminescence normalised to mean of the 0 concentration wells (= 100), viability ([2]; 4000 (nM, 4U), Fig. 7a): 1.6168 and 1.952 and 1.504 and 1.607
viability at 0.0411523 µM [2, 4]: 92.4%
viability at 0.0411523 µM [2, 5]: 91%
viability at 0.37037 µM [2, 4]: 20.7%
viability at 0.37037 µM [2, 5]: 21.4%
viability at 1.11111 µM [2, 4]: 18%
viability at 1.11111 µM [2, 5]: 16.5%
viability at 3.33333 µM [2, 4]: 13.1%
viability at 3.33333 µM [2, 5]: 13.4%
viability at 10 µM [2, 4]: 12.1%
viability at 10 µM [2, 5]: 12.3%
viability at […] [2, 4]: 78.8%
viability at […] [2, 5]: 78.2%
IC50 ([2]; Fig. 7a, read-out: IC50, viability of Kasumi-1 AML cells): 156 nM
IC50 ([2]; Fig. 7c, read-out: IC50, viability of Kasumi-1 cells): 131 nM
